Measured values from patent US11028051B2, “Tetrahydroquinoline-based bromodomain inhibitors” (St. Jude Children's Research Hospital, priority 2016, dated 2021).
pEC50, pIC50, pKd: −log10 of the molar value. Like-named read-outs stand apart in the source and are kept apart here.

How the values were obtained:
BRD2-BD1 [1] = molecular target: T1, BRD2-BD1 (Homo sapiens (Human), UniProt P25440); assay: competitive TR-FRET assay, BET-BD with acetylated peptide ligand; type: binding; details: for EC50: read-out: EC50 (μM) BRD2(1)
Experimental: (§1) Inhibitor potency was determined using a competitive TR-FRET assay as detailed herein, measuring interaction of the respective BET-BD with an acetylated peptide ligand (Table 2).
Target sequence in this assay (P25440 74-180): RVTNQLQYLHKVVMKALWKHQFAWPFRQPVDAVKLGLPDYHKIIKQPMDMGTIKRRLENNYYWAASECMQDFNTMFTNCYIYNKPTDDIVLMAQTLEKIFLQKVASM

BRD2-BD2 [2] = molecular target: T2, BRD2-BD2 (Homo sapiens (Human), UniProt P25440); assay: as above; type: binding; details: for [2(1)/2(2)]: Table 4, ratio of EC50; for EC50: read-out: EC50 (μM) BRD2(2)
Experimental: as §1
Target sequence in this assay (P25440 344-453): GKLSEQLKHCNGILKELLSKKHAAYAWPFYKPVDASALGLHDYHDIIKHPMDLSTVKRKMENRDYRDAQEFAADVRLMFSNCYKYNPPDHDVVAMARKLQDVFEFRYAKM

BRD3-BD1 = BRD3-BD1 (Homo sapiens (Human), UniProt Q15059); assay: as above; type: binding; details: for pEC50: Table 4, read-out: BRD3(1)
Experimental: as §1

BRD4-BD1 = BRD4-BD1 (Homo sapiens (Human), UniProt O60885); assay: as above; type: binding; details: for EC50: Table 4, read-out: EC50 (μM) BRD4(1)
Experimental: as §1

BRD4-BD2 = BRD4-BD2 (Homo sapiens (Human), UniProt O60885); assay: as above; type: binding; details: for 4(1)/4(2): Table 4, ratio of EC50; for EC50: Table 4, read-out: EC50 (μM) BRD4(2)
Experimental: as §1

BRDT = BRDT (Homo sapiens, UniProt Q58F21); assay: as above; type: binding
Experimental: as §1

HDMB03 cells = assay: cell viability, CellTiter-Glo; type: cell-based, human; details: for EC50: read-out: EC50 (μM) HDMB03
Experimental: Human G3 medulloblastoma or mouse SHH medulloblastoma cells were grown as neurospheres in supplemented neurobasal medium, as previously described (Kawauchi et al., 2012.)
(§2) After 7 days of treatment, an equal volume of CellTiter-Glo reagent (G7572, Promega) was added and the luminescence signal was measured using an automated Envision plate reader (Perkin-Elmer). Luminescence data were normalized by log10 transformation prior to calculating the percent inhibition using the following equation:
(§3) 100*(negative control mean −compound value)/(negative control mean −positive control mean).
High-throughput assay data were analyzed using Robust Interpretation of Screening Experiments (RISE) application written in Pipeline Pilot (Accelrys, v. 8.5) and the R program (R Development Core Team).
Dose-response curves were calculated by regressing the median percent inhibition obtained over triplicate experiments to log 10-transformed concentrations. Non-linear regression was then performed using the R drc package with the four parameter log-logistic function (LL2.4) (Ritz and Streibig, 2009). Curves were fit under three different constraints: (1) all parameters free, (2) high response fixed to 100, (3) low response fixed to 0; and the best fit from these three nested models was selected using the anova.drc function.

Loucy = assay: anti-proliferative activity; type: cell-based; details: Table 5
Experimental: as §2, §3

NALM-16 = assay: anti-proliferative activity; type: cell-based; details: Table 5
Experimental: as §2, §3

SEM cells = assay: anti-proliferative activity; type: cell-based; details: Table 5
Experimental: as §2, §3

[3] = test system: c-Myc expression in HDMB03 cells; assay: c-Myc expression inhibition, high content microscopy (HCM); type: cell-based, human; details: for EC50: read-out: EC50 (μM) Myc-inhibition
Experimental: 3000 human G3 medulloblastoma or 2000 mouse SHH medulloblastoma cells per well were plated into 384-well plates (6007710, Perkin Elmer) in 30 μL of supplemented neurobasal medium using a Wellmate automated dispenser (Thermo Matrix). After 24 hours, 125 nl of compound was transferred via pin tool, resulting in a final drug concentration from 2 nM to 40 μM. 72 hours after adding the drug, the plates were fixed with 4% formaldehyde for 20 min. After fixation the cells were then washed 3 times with 75 μl of PBS. The cells were then permeabilized with 0.1% Triton-X 100 for 15 minutes at 25° C. and blocked using 1% BSA in PBS for 1 hour at 25° C. The primary antibody against c-Myc Ab (#9402, Cell Signaling) at a 1:400 dilution was diluted in 1% BSA in PBS. This mixture was added to each well before incubation overnight at 4° C. Each well was then washed 3 times with PBS using a Biotek ELX405 Select plate washer, and incubated for 1 hour at 25° C. with a solution containing 1/400 goat α-rabbit-Alexa-488 (4412S, Cell Signaling) and 1 μM Hoechst 33342 to detect nuclear material (H3570, Molecular Probes). Two images were captured of each well at 10× using a GE Healthcare InCell 6000 at 405 nM to detect nuclear staining and 488 nM to detect c-Myc. All data were analyzed using the multi-target analysis algorithm of the GE InCell Analyzer Workstation software. The number of nuclear objects in each well, as well as all nuclear measurements, was determined through nuclear masks over the Hoechst staining. C-Myc staining was then measured using top-hat segmentation in the entire cell.

[4] = test system: neural crest tumor cell lines; assay: activity versus neural crest tumor cell lines; type: cell-based; details: several neural crest tumor cell lines; read-out: IC50 ranges
BRD2-BD1 [5] = molecular target: T1, BRD2-BD1; assay: isothermal titration calorimetry analysis of binding; details: ITC
Experimental: (§4) b. Isothermal Titration Calorimetry Analysis of Binding to Brd2-BD1 and Brd2-BD2
(§5) Binding of compounds to BRD2 was monitored using an ITC200 (Microcal, Piscataway, N.J.). Either Brd2.1 (74-194) or Brd2.2 (348-455) was dialyzed overnight into a solution containing 50 mM HEPES, pH 7.0 and 150 mM NaCl at 15° C. Enzyme concentrations were determined after dialysis by absorbance at 280 nm using a molar extinction coefficient (ε280) of 25,565 M^−1 cm^−1 (2.1) or 16,055 M^−1 cm^−1 (2.2). Enzyme was diluted in dialysis buffer and 39.6 μL was loaded into the syringe. Compounds were dissolved in the same dialysis buffer and loaded in the cell to a volume of 204 μL. Injections were carried out by serial injections of enzyme; first, 1 injection of 1 μL, followed by 19 incremental injections of 2 μL, at 120 second intervals. Data from the first injection was excluded, due to pre-equilibration mixing between the contents of cell and syringe at the syringe tip. Peak areas were integrated, normalized, and then fitted by non-linear regression using the independent sites model in Origin™ (version 2.3.6, Microcal, Piscataway, N.J.).
Target sequence in this assay (P25440 74-194): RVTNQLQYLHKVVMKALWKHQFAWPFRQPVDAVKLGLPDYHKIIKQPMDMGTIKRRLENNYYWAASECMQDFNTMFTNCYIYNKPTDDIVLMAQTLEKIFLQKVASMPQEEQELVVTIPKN

BRD2-BD2 [6] = molecular target: T2, BRD2-BD2; assay: as above; details: ITC
Experimental: as §4, §5
Target sequence in this assay (P25440 348-455): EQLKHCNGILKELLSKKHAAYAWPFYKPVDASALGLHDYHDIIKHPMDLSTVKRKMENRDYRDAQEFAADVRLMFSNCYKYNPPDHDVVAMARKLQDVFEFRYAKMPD

BRD2-BD2 [7] = assay: as above; details: ITC Kd BRD2-BD1 / BRD2-BD2
Experimental: as §4, §5

[8] = test system: c-Myc oncogene expression; details: previous study with BD2-selective BET inhibitor; cited from earlier work
BRD2(1) = BRD2(1) (Homo sapiens (Human), UniProt P25440); assay: BROMOscan KD determination; type: binding; details: Table 10
Description: (§6) DiscoverX® can screen compounds against all ˜42 bromodomains (a service called BROMOscan) and perform follow-up KD determination. This service is considered the industrial standard for bromodomain inhibitor comparisons. […] Dots are symbolic of inhibition of the compound at this concentration; the larger the size of the dot, the greater the activity of the compound. […] Though these compounds are selective for the BET family, the selectivity within the BET family is poor. The results of a competitive binding experiment between compounds 19 (left), 41 (center), and 56 (right) (at a single concentration, 1 μM) and a control for each of the bromodomains are shown in FIG. 5.

BRD2(2) = BRD2(2) (Homo sapiens (Human), UniProt P25440); assay: BROMOscan KD determination; type: binding; details: for pKd: BROMOscan, Table 10
Description: as §6

BRDT(1) = BRDT(1) (Homo sapiens (Human), UniProt Q58F21); assay: BROMOscan KD determination; type: binding; details: Table 10
Description: as §6

BRDT(2) = BRDT(2) (Homo sapiens (Human), UniProt Q58F21); assay: BROMOscan KD determination; type: binding; details: for pKd: BROMOscan, Table 10
Description: as §6

BRD3(1) = BRD3(1) (Homo sapiens (Human), UniProt Q15059); assay: BROMOscan KD determination; type: binding; details: Table 10
Description: (§7) DiscoverX® can screen compounds against all ˜42 bromodomains (a service called BROMOscan) and perform follow-up KD determination. This service is considered the industrial standard for bromodomain inhibitor comparisons.

BRD3(2) = BRD3(2) (Homo sapiens (Human), UniProt Q15059); assay: BROMOscan KD determination; type: binding; details: for pKd: BROMOscan, Table 10
Description: as §7

all ~42 bromodomains = assay: BROMOscan competitive binding experiment at a single concentration; details: 1 μM, FIG. 4
Description: as §6

BRD4(1) = BRD4(1) (Homo sapiens (Human), UniProt O60885); assay: BROMOscan KD determination; type: binding; details: Table 10
Description: as §7

BRD4(2) = BRD4(2) (Homo sapiens (Human), UniProt O60885); assay: BROMOscan KD determination; type: binding
Description: as §7

[9] = Table 2, inhibitor potency by TR-FRET

BRD3(2), sequence (Q15059 306-415): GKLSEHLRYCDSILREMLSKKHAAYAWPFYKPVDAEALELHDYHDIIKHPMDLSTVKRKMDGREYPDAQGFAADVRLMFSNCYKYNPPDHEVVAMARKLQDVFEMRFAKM
BRD2(2), sequence (P25440 344-453): as the sequence (P25440 344-453) above
BRD3-BD1, sequence (Q15059 34-140): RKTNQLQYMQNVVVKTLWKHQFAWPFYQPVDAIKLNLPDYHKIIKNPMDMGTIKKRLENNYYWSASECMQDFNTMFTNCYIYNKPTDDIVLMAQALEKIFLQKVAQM
BRD2(1), sequence (P25440 74-180): as the sequence (P25440 74-180) above
BRD3(1), sequence (Q15059 34-140): as the sequence (Q15059 34-140) above

EC50 (BRD2-BD1 [1]; Table 4) | [2(1)/2(2)] (BRD2-BD2 [2]) | EC50 (BRD2-BD2 [2]; Table 4) | pEC50 (BRD3-BD1) | EC50 (BRD4-BD1) | 4(1)/4(2) (BRD4-BD2) | EC50 (BRD4-BD2) | pEC50 (BRDT; Table 4, read-out: BRDT EC50) | EC50 ([3]; Homo sapiens, HD-MB03, Table 5) | SMILES | EC50 (HDMB03 cells; Homo sapiens, HD-MB03, Table 5) | EC50 (Loucy) | EC50 (NALM-16; NALM16) | EC50 (SEM cells) | pKd (BRD2(1)) | pKd (BRD2(2)) | pKd (BRDT(1)) | pKd (BRDT(2)) | pKd (BRD3(1)) | pKd (BRD3(2)) | other results
4.2 µM | 75 | 0.06 µM | 5.70 | 6 µM | 52.9 | 0.1 µM | 5.04 | 0.49 µM | COc1ccccc1N[C@@H]1C[C@H](C)N(C(C)=O)c2ccc(-c3cccc(NC(C)=O)c3)cc21 [compound 40] | 17.6 µM | 0.32 µM | 0.26 µM | 0.02 µM |  |  |  |  |  |  | pIC50 [4]: 6.70 to 7.30
2.6 µM | 33 | 0.08 µM | 5.72 | 3.1 µM | 15 | 0.21 µM | 5.43 | 0.68 µM | CC(=O)Nc1cccc(-c2ccc3c(c2)[C@H](Nc2ccc(Cl)cc2)C[C@H](C)N3C(C)=O)c1 [compound 10] | 1.18 µM |  | 0.33 µM |  |  |  |  |  |  |  | 
 |  |  |  |  |  |  |  |  | CC(=O)N1c2ccc(-c3ccoc3)cc2[C@H](NC(=O)OC(C)C)C[C@@H]1C [compound 51] |  |  |  |  |  |  |  |  |  |  | pIC50 (BRD2-BD1 [1]; [9]): 5.14; pIC50 (BRD2-BD2 [2]; [9]): 5.85; BD1/BD2 (BRD2-BD2 [2]; Table 2, ratio BRD2-BD1/BRD2-BD2): 5; pIC50 (BRD3-BD1; [9]): 5.64; pIC50 (BRD4-BD1; [9]): 5.24; pIC50 (BRD4-BD2; [9]): 5.37; pIC50 (BRDT; [9]): 4.64; ΔG (BRD2-BD1 [5]; BRD2-BD1): -8.96 kcal/mol; ΔH (BRD2-BD1 [5]; BRD2-BD1): -9.90 kcal/mol; −TΔS (BRD2-BD1 [5]; BRD2-BD1): 0.94 kcal/mol; pKd (BRD2-BD1 [5]; BRD2-BD1, average of 3 experiments, read-out: average Kd): 6.79; ΔG (BRD2-BD2 [6]; BRD2-BD2): -8.61 kcal/mol; ΔH (BRD2-BD2 [6]; BRD2-BD2): -6.31 kcal/mol; −TΔS (BRD2-BD2 [6]; BRD2-BD2): -2.29 kcal/mol; pKd (BRD2-BD2 [6]; BRD2-BD2, average of 3 experiments, read-out: average Kd): 6.52; Selectivity (2-1/2-2) (BRD2-BD2 [7]): 0.5; pEC50 (HDMB03 cells; Homo sapiens, HD-MB03, HDMB03 cells, read-out: cell viability EC50): 5.48; pEC50 ([3]; Homo sapiens, HD-MB03, HDMB03 cells, read-out: c-Myc expression EC50): 6.00
 |  |  |  |  |  |  |  |  | COc1cc(OC)c2c(=O)[nH]c(-c3cc(C)c(OCCO)c(C)c3)nc2c1 [RVX-208] |  |  |  |  |  |  |  |  |  |  | c-Myc oncogene expression [8]: did not inhibit c-Myc oncogene expression
8.3 µM | 52 | 0.16 µM | 5.27 | 8.3 µM | 59 | 0.14 µM | 5.00 | 0.11 µM | CC(=O)Nc1cccc(-c2ccc3c(c2)[C@H](Nc2ccccc2OC(F)(F)F)C[C@H](C)N3C(C)=O)c1 [compound 19] | 1.14 µM |  | > 1.7 µM | 0.04 µM | 6.77 | 8.46 | 7.14 | 7.96 | 6.96 | 8.89 | [2(1)/2(2)] (BRD2(2); BROMOscan KD ratio): 48.6; T(1)/T(2) (BRDT(2); BROMOscan KD ratio): 6.5; 3(1)/3(2) (BRD3(2); BROMOscan KD ratio): 84.6; pKd (BRD4(1)): 7.00; 4(1)/4(2) (BRD4(2); BROMOscan KD ratio): 58.2; pKd (BRD4(2); BROMOscan, Table 10): 8.77

SMILES | EC50 (BRD2-BD1 [1]; Table 4) | [2(1)/2(2)] (BRD2-BD2 [2]) | EC50 (BRD2-BD2 [2]; Table 4) | pEC50 (BRD3-BD1) | EC50 (BRD4-BD1) | 4(1)/4(2) (BRD4-BD2) | EC50 (BRD4-BD2) | pEC50 (BRDT; Table 4, read-out: BRDT EC50) | EC50 ([3]; Homo sapiens, HD-MB03, Table 5) | EC50 (HDMB03 cells; Homo sapiens, HD-MB03, Table 5) | EC50 (Loucy) | EC50 (NALM-16; NALM16) | EC50 (SEM cells) | pKd (BRD2(1)) | pKd (BRD2(2)) | pKd (BRDT(1)) | pKd (BRDT(2)) | pKd (BRD3(1)) | pKd (BRD3(2)) | other results
CC(=O)N1c2ccc(-c3ccc(C(=O)O)cc3)cc2[C@H](Nc2ccc(Cl)cc2)C[C@@H]1C [GSK-726, IBET-726, reference compound] | 1 µM |  | 0.057 µM |  |  |  |  | 5.28 |  |  | 0.33 µM |  | 0.02 µM | 8.33 | 9.70 | 8.35 | 9.05 | 8.51 | 9.70 | EC50 (BRD2-BD1 [1]; Table 6): 1.3 µM; EC50 (BRD2-BD1 [1]; Table 8): 1.3 µM; EC50 (BRD2-BD2 [2]; Table 6): 0.19 µM; EC50 (BRD2-BD2 [2]; Table 8): 0.19 µM; pEC50 (BRDT; Table 6, head names no target, BRDT by comparison with Table 4, read-out: EC50): 5.26; pEC50 (BRDT; Table 8, head names no target, BRDT by comparison with Table 4, read-out: EC50): 5.26; EC50 (HDMB03 cells; Table 5): 5.77 µM; EC50 (HDMB03 cells; Table 7): 0.95 µM; EC50 (HDMB03 cells; Table 9, cancer cell proliferation inhibition): 0.95 µM; EC50 (NALM-16): 0.23 µM; EC50 ([3]; Table 5): 0.17 µM; EC50 ([3]; Table 7): 1.5 µM; EC50 ([3]; Table 9, c-Myc expression inhibition in HDMB03 cells): 1.5 µM; activity across bromodomain families (all ~42 bromodomains): activity only versus the BET family
